Values joined by “and” are separate entries in the source; they are usually repeats but may differ in a detail not shown here. Identical values can stand only once. Toxic doses and inconclusive results are not listed.
Tested on: B6C3F1 mice, B16 melanoma ip, median survival T/C
Assay: NCI In Vivo Anticancer Drug Screen. Data for tumor model B16 Melanoma (intraperitoneal) in B6C3F1 mice
Conditions: endpoint: median survival time, higher = longer survival
Summary of the method: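 Transplantable tumor in mice; treated vs vehicle control groups; survival or tumor size measured; value = T/C ratio.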

[1] = dose: 5.0 mg/kg/injection, schedule: Q01DX009 (ip), vehicle: Klucel (hydroxypropylcellulose) (HPC)
[2] = dose: 10.0 mg/kg/injection, schedule: Q01DX009 (ip), vehicle: Klucel (hydroxypropylcellulose) (HPC)
[3] = dose: 20.0 mg/kg/injection, schedule: Q01DX009 (ip), vehicle: Klucel (hydroxypropylcellulose) (HPC)

With `C=CCCC(=O)CCCC(=O)O[C@@H]1[C@@H]2[C@H](CC1(C)C)[C@H](O)[C@@]13O[C@@H]1[C@H](O)[C@@]1(CO1)[C@@]23C` the T/C (dose: 3.12 micrograms/kg/injection, schedule: Q01DX009 (ip), vehicle: saline) was 97 % of control, the T/C (dose: 6.25 micrograms/kg/injection, schedule: Q01DX009 (ip), vehicle: saline) was 91 % of control and the T/C (dose: 12.5 micrograms/kg/injection, schedule: Q01DX009 (ip), vehicle: saline) was 103 % of control. The T/C (dose: 25.0 micrograms/kg/injection, schedule: Q01DX009 (ip), vehicle: Klucel (hydroxypropylcellulose) (HPC)) was 98 % of control, the T/C (dose: 25.0 micrograms/kg/injection, schedule: Q01DX009 (ip), vehicle: saline) was 93 % of control and the T/C (dose: 50.0 micrograms/kg/injection, schedule: Q01DX009 (ip), vehicle: Klucel (hydroxypropylcellulose) (HPC)) was 91 % of control. The T/C (dose: 50.0 micrograms/kg/injection, schedule: Q01DX009 (ip), vehicle: saline) was 97 % of control, the T/C (dose: 100.0 micrograms/kg/injection, schedule: Q01DX009 (ip), vehicle: saline) was 98 % of control and the T/C (dose: 200.0 micrograms/kg/injection, schedule: Q01DX009 (ip), vehicle: Klucel (hydroxypropylcellulose) (HPC)) was 98 % of control. For the same compound, the T/C (dose: 400.0 micrograms/kg/injection, schedule: Q01DX009 (ip), vehicle: Klucel (hydroxypropylcellulose) (HPC)) was 96 % of control.
`Cc1cc(NCCN(C(C)C)C(C)C)nc(/N=C(\N)Nc2ccc(Cl)c(C(F)(F)F)c2)n1` was tested, and the T/C (dose: 1.25 mg/kg/injection, schedule: Q01DX009 (ip), vehicle: Klucel (hydroxypropylcellulose) (HPC)) was 111 % of control, the T/C (dose: 2.5 mg/kg/injection, schedule: Q01DX009 (ip), vehicle: Klucel (hydroxypropylcellulose) (HPC)) was 106 % of control and the T/C [1] was 100 % of control. The T/C [2] was 86 % of control, the T/C [3] was 96 % of control and the T/C (dose: 40.0 mg/kg/injection, schedule: Q01DX009 (ip), vehicle: Klucel (hydroxypropylcellulose) (HPC)) was 98 % of control.
For `Cc1ccc(Cl)c2ccccc12`, the T/C (dose: 12.5 mg/kg/injection, schedule: Q01DX009 (ip), vehicle: saline with Tween-80) was 101 % of control and 104 % of control, the T/C (dose: 25.0 mg/kg/injection, schedule: Q01DX009 (ip), vehicle: saline with Tween-80) was 100 % of control and 101 % of control and 104 % of control and the T/C (dose: 50.0 mg/kg/injection, schedule: Q01DX009 (ip), vehicle: saline with Tween-80) was 101 % of control and 105 % of control and 107 % of control. For the same compound, the T/C (dose: 100.0 mg/kg/injection, schedule: Q01DX009 (ip), vehicle: saline with Tween-80) was 94 % of control and 98 % of control and the T/C (dose: 200.0 mg/kg/injection, schedule: Q01DX009 (ip), vehicle: saline with Tween-80) was 94 % of control.
For `CC1([CH2][Hg][I])COCC([CH2][Hg][I])O1` (configuration not stated), the T/C [1] was 100 % of control, the T/C [2] was 102 % of control and the T/C [3] was 86 % of control.
With `O=C1N[C@@H]([C@H]2CC[C@H](Cl)CN2)C(=O)N[C@H]1[C@H]1CC[C@H](Cl)CN1` the T/C (dose: 0.25 mg/kg/injection, schedule: Q01DX005 (ip), vehicle: saline) was 99 % of control, the T/C (dose: 0.25 mg/kg/injection, schedule: Q01DX005 (iv), vehicle: saline) was 105 % of control and the T/C (dose: 0.25 mg/kg/injection, schedule: Q01DX009 (ip), vehicle: saline) was 107 % of control. The T/C (dose: 0.5 mg/kg/injection, schedule: Q01DX005 (ip), vehicle: saline) was 100 % of control, the T/C (dose: 0.5 mg/kg/injection, schedule: Q01DX005 (iv), vehicle: saline) was 95 % of control and the T/C (dose: 0.5 mg/kg/injection, schedule: Q01DX005 (oral), vehicle: saline) was 96 % of control. The T/C (dose: 0.5 mg/kg/injection, schedule: Q04DX003 (ip), vehicle: saline) was 97 % of control, the T/C (dose: 1.0 mg/kg/injection, schedule: Q01DX005 (ip), vehicle: saline) was 124 % of control and the T/C (dose: 1.0 mg/kg/injection, schedule: Q01DX005 (iv), vehicle: saline) was 99 % of control. For the same compound, the T/C (dose: 1.0 mg/kg/injection, schedule: Q01DX005 (oral), vehicle: saline) was 99 % of control, the T/C (dose: 1.0 mg/kg/injection, schedule: Q04DX003 (ip), vehicle: saline) was 103 % of control and the T/C (dose: 2.0 mg/kg/injection, schedule: Q01DX005 (iv), vehicle: saline) was 108 % of control. For the same compound, the T/C (dose: 2.0 mg/kg/injection, schedule: Q01DX005 (oral), vehicle: saline) was 115 % of control, the T/C (dose: 2.0 mg/kg/injection, schedule: Q04DX003 (ip), vehicle: saline) was 108 % of control and the T/C (dose: 4.0 mg/kg/injection, schedule: Q01DX005 (ip), vehicle: saline) was 183 % of control. The T/C (dose: 4.0 mg/kg/injection, schedule: Q01DX005 (iv), vehicle: saline) was 120 % of control, the T/C (dose: 4.0 mg/kg/injection, schedule: Q01DX005 (oral), vehicle: saline) was 110 % of control and the T/C (dose: 4.0 mg/kg/injection, schedule: Q04DX003 (ip), vehicle: saline) was 112 % of control.
